According to patent US8247211B2, “Glycopeptide antibiotics” (American Cyanamid Company, priority 2001, dated 2012):
Converted amounts (≈) assume the structure as drawn.

What was measured:
Test in all cases: In vitro antibacterial evaluation: minimum inhibitory concentration (MIC), broth dilution method
Assay type in all cases: cell-based
Escherichia coli = tested on: Escherichia coli
How it was run: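 Broth dilution per NCCLS M7-A2 in Muller-Hinton II […], inoculum 5×10^5 CFU/mL, antibiotic tested over 64-0.06 μg/mL. MIC is taken as the lowest concentration that inhibits growth. Panel includes recent clinical isolates resistant to methicillin, penicillin and/or vancomycin.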

Enterococcus sp. = tested on: Enterococcus sp.
How it was run: (§1)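 Values are minimum inhibitory concentrations, meaning the smallest antibiotic concentration that stops growth of the organism. They come from broth dilution in Muller-Hinton II […] per NCCLS guidance (M7-A2), using 5×10^5 CFU/mL and concentrations from 64 to 0.06 μg/mL.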

Streptococcus sp. = tested on: Streptococcus sp.
How it was run: as §1

Staphylococcus sp. = conditions: broth dilution, 18 hours at 35° C.
How it was run: as §1

[1] = broth dilution, inoculum 5×10^5 CFU/mL, 18 hours at 35° C.

MIC Escherichia coli (ATCC 25922) (Escherichia coli; strain ATCC 25922): >64 µg/mL
MIC Escherichia coli (GC 4559) (Escherichia coli; strain GC 4559): 64 µg/mL (≈ 43.7 µM)
MIC Escherichi coli (GC 4560) (Escherichia coli; strain GC 4560): 4 µg/mL (≈ 2.73 µM)
MIC Enterococcus avium (GC 4558) (Enterococcus sp.; [1]): 8 µg/mL (≈ 5.46 µM)
MIC Enterococcus faecalis (ATCC 29212) (Enterococcus sp.; [1]): 8 µg/mL (≈ 5.46 µM)
MIC Enterococcus faecalis (GC 2242) (Enterococcus sp.; [1]): 4 µg/mL (≈ 2.73 µM)
MIC Enterococcus faecalis (GC 2691) (Enterococcus sp.; [1]): 8 µg/mL (≈ 5.46 µM)
MIC Enterococcus faecalis (GC 3059) (Enterococcus sp.; [1]): 8 µg/mL (≈ 5.46 µM)
MIC Enterococcus faecalis (GC 4552) (Enterococcus sp.; [1]): 8 µg/mL (≈ 5.46 µM)
MIC Enterococcus faecalis (GC 4553) (Enterococcus sp.; [1]): 8 µg/mL (≈ 5.46 µM)
MIC Enterococcus faecalis (GC 4554) (Enterococcus sp.; [1]): 16 µg/mL (≈ 10.9 µM)
MIC Enterococcus faecalis (GC 6189) (Enterococcus sp.; [1]): 4 µg/mL (≈ 2.73 µM)
MIC Enterococcus faecium (GC 2243) (Enterococcus sp.; [1]): 8 µg/mL (≈ 5.46 µM)
MIC Enterococcus faecium (GC 4556) (Enterococcus sp.; [1]): 8 µg/mL (≈ 5.46 µM)
MIC Enterococcus faecium (GC 4557) (Enterococcus sp.; [1]): 4 µg/mL (≈ 2.73 µM)
MIC Enterococcus faecalis (ATCC 29212) (Enterococcus sp.; strain ATCC 29212): 8 µg/mL (≈ 5.46 µM)
MIC Enterococcus faecalis (GC 2242) (Enterococcus sp.; strain GC 2242): 4 µg/mL (≈ 2.73 µM)
MIC Enterococcus faecium (GC 2243) (Enterococcus sp.; strain GC 2243): 8 µg/mL (≈ 5.46 µM)
MIC Enterococcus faecalis (GC 2691) (Enterococcus sp.; strain GC 2691): 8 µg/mL (≈ 5.46 µM)
MIC Enterococcus faecalis (GC 3059) (Enterococcus sp.; strain GC 3059): 8 µg/mL (≈ 5.46 µM)
MIC Enterococcus faecalis (GC 4552) (Enterococcus sp.; strain GC 4552): 8 µg/mL (≈ 5.46 µM)
MIC Enterococcus faecalis (GC 4553) (Enterococcus sp.; strain GC 4553): 8 µg/mL (≈ 5.46 µM)
MIC Enterococcus faecalis (GC 4554) (Enterococcus sp.; strain GC 4554): 16 µg/mL (≈ 10.9 µM)
MIC Enterococcus faecium (GC 4556) (Enterococcus sp.; strain GC 4556): 8 µg/mL (≈ 5.46 µM)
MIC Enterococcus faecium (GC 4557) (Enterococcus sp.; strain GC 4557): 4 µg/mL (≈ 2.73 µM)
MIC Enterococcus avium (GC 4558) (Enterococcus sp.; strain GC 4558): 8 µg/mL (≈ 5.46 µM)
MIC Enterococcus faecalis (GC 6189) (Enterococcus sp.; strain GC 6189): 4 µg/mL (≈ 2.73 µM)
MIC Streptococcus agalactiae (GC 4564) (Streptococcus sp.; [1]): 0.12 µg/mL (≈ 0.0819 µM)
MIC Streptococcus pneumoniae (ATCC 6301) (Streptococcus sp.; [1]): <0.06 µg/mL
MIC Streptococcus pneumoniae (GC 1894) (Streptococcus sp.; [1]): <0.06 µg/mL
MIC Streptococcus pneumoniae (GC 4565) (Streptococcus sp.; [1]): <0.06 µg/mL
MIC Streptococcus pyogenes (GC 4563) (Streptococcus sp.; [1]): 0.12 µg/mL (≈ 0.0819 µM)
MIC Streptococcus pneumoniae (ATCC 6301) (Streptococcus sp.; strain ATCC 6301): <0.06 µg/mL
MIC Streptococcus pneumoniae (GC 1894) (Streptococcus sp.; strain GC 1894): <0.06 µg/mL
MIC Streptococcus pyogenes (GC 4563) (Streptococcus sp.; strain GC 4563): 0.12 µg/mL (≈ 0.0819 µM)
MIC Streptococcus agalactiae (GC 4564) (Streptococcus sp.; strain GC 4564): 0.12 µg/mL (≈ 0.0819 µM)
MIC Streptococcus pneumoniae (GC 4565) (Streptococcus sp.; strain GC 4565): <0.06 µg/mL
MIC Coagulase Negative Staphylococcus (GC 4547) (Staphylococcus sp.; 5×10^5 CFU/mL): 4 µg/mL (≈ 2.73 µM)
MIC Coagulase Negative Staphylococcus (GC 4548) (Staphylococcus sp.; 5×10^5 CFU/mL): 1 µg/mL (≈ 0.682 µM)
MIC Coagulase Negative Staphylococcus (GC 4549) (Staphylococcus sp.; 5×10^5 CFU/mL): 0.5 µg/mL (≈ 0.341 µM)
MIC Coagulase Negative Staphylococcus (GC 4551) (Staphylococcus sp.; 5×10^5 CFU/mL): 4 µg/mL (≈ 2.73 µM)
MIC Coagulase Negative Staphylococcus (GC 6257) (Staphylococcus sp.; 5×10^5 CFU/mL): 1 µg/mL (≈ 0.682 µM)
MIC Staphylococcus aureus (ATCC 29213) (Staphylococcus sp.; 5×10^5 CFU/mL): 8 µg/mL (≈ 5.46 µM)
MIC Staphylococcus aureus (GC 1131) (Staphylococcus sp.; 5×10^5 CFU/mL): 4 µg/mL (≈ 2.73 µM)
MIC Staphylococcus aureus (GC 3051) (Staphylococcus sp.; 5×10^5 CFU/mL): 16 µg/mL (≈ 10.9 µM)
MIC Staphylococcus aureus (GC 3053) (Staphylococcus sp.; 5×10^5 CFU/mL): 8 µg/mL (≈ 5.46 µM)
MIC Staphylococcus aureus (GC 4541) (Staphylococcus sp.; 5×10^5 CFU/mL): 8 µg/mL (≈ 5.46 µM)
MIC Staphylococcus aureus (GC 4542) (Staphylococcus sp.; 5×10^5 CFU/mL): 16 µg/mL (≈ 10.9 µM)
MIC Staphylococcus aureus (GC 4544) (Staphylococcus sp.; 5×10^5 CFU/mL): 8 µg/mL (≈ 5.46 µM)
MIC Staphylococcus aureus (GC 4545) (Staphylococcus sp.; 5×10^5 CFU/mL): 4 µg/mL (≈ 2.73 µM)
MIC Staphylococcus aureus-SMITH (GC 4543) (Staphylococcus sp.; 5×10^5 CFU/mL): 4 µg/mL (≈ 2.73 µM)
MIC Staphylococcus aureus (ATCC 29213) (Staphylococcus sp.; strain ATCC 29213): 8 µg/mL (≈ 5.46 µM)
MIC Staphylococcus aureus (GC 1131) (Staphylococcus sp.; strain GC 1131): 4 µg/mL (≈ 2.73 µM)
MIC Staphylococcus aureus (GC 3051) (Staphylococcus sp.; strain GC 3051): 16 µg/mL (≈ 10.9 µM)
MIC Staphylococcus aureus (GC 3053) (Staphylococcus sp.; strain GC 3053): 8 µg/mL (≈ 5.46 µM)
MIC Staphylococcus aureus (GC 4541) (Staphylococcus sp.; strain GC 4541): 8 µg/mL (≈ 5.46 µM)
MIC Staphylococcus aureus (GC 4542) (Staphylococcus sp.; strain GC 4542): 16 µg/mL (≈ 10.9 µM)
MIC Staphylococcus aureus-SMITH (GC 4543) (Staphylococcus sp.; strain GC 4543): 4 µg/mL (≈ 2.73 µM)
MIC Staphylococcus aureus (GC 4544) (Staphylococcus sp.; strain GC 4544): 8 µg/mL (≈ 5.46 µM)
MIC Staphylococcus aureus (GC 4545) (Staphylococcus sp.; strain GC 4545): 4 µg/mL (≈ 2.73 µM)
MIC Coagulase Negative Staphylococcus (GC 4547) (Staphylococcus sp.; strain GC 4547): 4 µg/mL (≈ 2.73 µM)
MIC Coagulase Negative Staphylococcus (GC 4548) (Staphylococcus sp.; strain GC 4548): 1 µg/mL (≈ 0.682 µM)
MIC Coagulase Negative Staphylococcus (GC 4549) (Staphylococcus sp.; strain GC 4549): 0.5 µg/mL (≈ 0.341 µM)
MIC Coagulase Negative Staphylococcus (GC 4551) (Staphylococcus sp.; strain GC 4551): 4 µg/mL (≈ 2.73 µM)
MIC Coagulase Negative Staphylococcus (GC 6257) (Staphylococcus sp.; strain GC 6257): 1 µg/mL (≈ 0.682 µM)
Structure (SMILES): CC(c1ccccc1)C1NC(=O)CNC(=O)C(CO)NC(=O)C(C(O)C2CNC(=N)N2C2OC(CO)C(O)C(O)C2O)NC(=O)C(C(O)C2CNC(=N)N2)NC(=O)C(Cc2ccc(OC3OC(CO)C(OC4OC5COC(c6ccc(-c7ccsc7)cc6)OC5C(O)C4O)C(O)C3O)cc2)NC1=O (stereo not drawn) [Example 164, Cyclo[glycyl-β-methylphenylalanyl-O-[4-O-[4,6-O-[4-(3-thienyl)benzylidene]hexopyranosyl]-hexopyranosyl]tyrosyl-3-(2-iminoimidazolidin-4-yl)seryl-3-(3-hexopyranosyl-2-iminoimidazolidin-4-yl)serylseryl]]
MIC Staphylococcus haemolyticus (GC 4546) (Staphylococcus sp.; 5×10^5 CFU/mL): 4 µg/mL (≈ 2.73 µM)
MIC Staphylococcus haemolyticus (GC 4546) (Staphylococcus sp.; strain GC 4546): 4 µg/mL (≈ 2.73 µM)
